Experimental findings from patent US11939334B2, “Substituted pyrimido[4,5-b][1,4]diazepines as PLK1 degradation inducers” (UPPTHERA, INC., priority 2021, dated 2024) are described below.

SMILES strings stand for the structures.

One data set has as its target T1, PLK1 (Homo sapiens, UniProt P53350).
T1 construct: endogenous in cells; host or cells: HeLa cells stably expressing LgBit, with CRISPR/Cas9 knock-in of HiBit at the endogenous PLK1 locus
The data set can be described thus: Luciferase assay for PLK1 in HeLa LgBit (Plk1-HiBit KI) cell line. Particulars: 300 nM compound, luminescence after 9 hours. It counts as cell-based. The procedure: 2. Luciferase Assay for PLK1
(1) Preparation and Culture of HeLa LgBit (Plk1-HiBit KI) Cell Line
A HeLa cell line in which the LgBit vector was transfected and expressed stably was prepared. Then, after constructing gRNA and donor to express the HiBit amino acid sequence behind the C-terminal of the Plk1 gene, which was inherent in the cell, it was inserted into the cell together with a vector capable of expressing CRISPR/Cas9. Only the cells in which the insertion was completed and knock-in had progressed were selected, sub-cultured and used.
(2) Treatment of Compounds of the Present Invention and Method of Luciferase Assay
In the case of HeLa LgBit (Plk1-HiBit KI), the compounds were treated after being released after thymidine block, and the process was as follows. Thymidine (Sigma-Aldrich Cat. No. T9250-5G) was completely dissolved in DW and used in the experiment. For thymidine block, the products were treated with 2 mM of thymidine and then incubated for 24 hours. For release and chemical treatment, the medium was suctioned and washed with 1×PBS. TrypLE™ was added and incubated in 37° C. CO2 incubator for 5 min. Cells neutralized by adding complete media were counted through a counter. For each well of a 96-well culture plate (SPL), 3.3×10^4 cells and a total medium volume of 150 μL were seeded and incubated in a CO2 incubator.
Each cell line was incubated in a CO2 incubator for 18 hours, and Endurazine was added to each well to make up 4% of the total volume. After adding the compound of the present invention in a 96-well white plate (SPL) to a concentration of 300 nM, the wavelength of the plate reader (BMG Labtech, CLARIOstar Plus) was set to […], and then the luminescence was tracked in real time.
The results are shown in Table 2 below and FIGS. 1 and 2.
In Table 2, Activity represents the ratio of the luminescence value of each Exemplary Compound treatment group to DMSO treatment group (+++: <0.3, ++ <0.6, + <0.7).

In the next data set the test system is H526 cell line. The experiment in a line: Cell viability assay for H526 cell line. It counts as cell-based. Conditions: Homo sapiens, NCI-H526, 120 h; H526 cells, 5 days, EZ-Cytox, 0.46-3000 nM. Here is the method:
3. Cell Viability Assay for H526 Cell Line
(1) Culture of NCI-H526 Cell Line
(2) Treatment of Compounds of the Present Invention and Method of Cell Viability Assay
After treating the compound to each well to make the total volume of 200 μL, it was cultured in a CO2 incubator (Thermo Fisher Science, Cat. No. 4111) for 5 days.
The absorbance of the completely cultured sample was measured by setting the wavelength of a plate reader (BMG Labtech, CLARIOstar Plus) to […], and was measured after shaking for 3 minutes in a plate reader before measurement.
In Table 3, Activity represents IC50 value of each Exemplary Compound treatment group to H526 cell line (A: <30 nM, B: <50 nM, C: <100 nM, D: <200 nM, E: <400 nM).

The nature of data set [1]: Cell viability assay for MRC-5 cell line. Particulars: human.
Protocol: Cell Viability Assay for MRC-5 Cell Line
(1) Culture of MRC-5 Cell Line
The MRC-5 cell line was purchased from Korea Cell Line Bank (KCLB), Seoul, Korea. Passage of cultured cells was maintained within P15.
6×10^3 cells were seeded for each well of a 96-well plate (SPL), and the cells were cultured in total volume of 150 μL.
Each well was mixed with a medium and treated, and the volume was set to 50 μL, so that the total volume of each well was 200 μL. Then, it was cultured in 37° C.
The following compounds were used as comparative examples, and the cell viability assay was performed in the same manner as in the compounds of Examples.
(3) Cytotoxicity Experiment
After treating EZ-Cytox (DOGEN, Cat. NO. EZ-3000, Lot. No. DLS2112) 20 μL in each well of completely cultured plate, it was cultured in 37° C. CO2 incubator for 4 hours. […] The data were converted into graphs using the Prism (ver. 9) program.

T1 sequence (P53350 whole entry): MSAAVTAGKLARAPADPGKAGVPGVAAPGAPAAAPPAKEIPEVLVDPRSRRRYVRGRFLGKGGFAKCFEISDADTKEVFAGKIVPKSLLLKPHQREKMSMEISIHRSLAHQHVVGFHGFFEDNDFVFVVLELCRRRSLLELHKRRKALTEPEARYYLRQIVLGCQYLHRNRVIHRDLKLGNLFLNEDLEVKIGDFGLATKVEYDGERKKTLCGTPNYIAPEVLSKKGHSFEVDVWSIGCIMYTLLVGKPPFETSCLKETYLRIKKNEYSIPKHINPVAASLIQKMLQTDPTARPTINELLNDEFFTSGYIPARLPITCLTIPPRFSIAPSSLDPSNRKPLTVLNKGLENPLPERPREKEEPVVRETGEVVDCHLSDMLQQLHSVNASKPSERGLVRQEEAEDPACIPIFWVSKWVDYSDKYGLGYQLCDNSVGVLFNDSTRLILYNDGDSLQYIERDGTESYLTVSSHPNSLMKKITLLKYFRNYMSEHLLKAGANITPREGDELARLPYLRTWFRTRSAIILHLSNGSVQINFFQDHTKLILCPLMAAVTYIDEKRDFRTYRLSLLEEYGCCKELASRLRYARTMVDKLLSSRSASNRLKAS

As to `COc1cc(C(=O)NN2CCC(F)(CN3CCN(c4ccc(C5CCC(=O)NC5=O)cc4F)CC3)CC2)ccc1Nc1ncc2c(n1)N(C(C)C)CC(F)(F)C(=O)N2C` (stereo not drawn) [Compound 18, 4-((7,7-difluoro-9-isopropyl-5-methyl-6-oxo-6,7,8,9-tetrahydro-5H-pyrimido[4,5-b][1,4]diazepin-2-yl)amino)-N-(4-((4-(4-(2,6-dioxopiperidin-3-yl)-2-fluorophenyl)piperazin-1-yl)methyl)-4-fluoropiperidin-1-yl)-3-methoxybenzamide], the “Activity: ratio of the luminescence value of each Exemplary Compound treatment group to DMSO treatment group” value (“Activity: ratio” below) on PLK1 is reported as “++ (++ <0.6)”. The compound further displayed an IC50 with H526 cell line of under 0.1 µM. The IC50 at 5 days in data set [1] (MRC-5 cells (normal cell line)) is over 10 µM.
On to `COc1cc(C(=O)NC2CC3(CCN(CC4CCN(c5ccc(C6CCC(=O)NC6=O)cc5F)CC4)CC3)C2)ncc1Nc1ncc2c(n1)N(C(C)C)CC(F)(F)C(=O)N2C` (stereo not drawn) [Compound 22, 5-((7,7-difluoro-9-isopropyl-5-methyl-6-oxo-6,7,8,9-tetrahydro-5H-pyrimido[4,5-b][1,4]diazepin-2-yl)amino)-N-(7-((1-(4-(2,6-dioxopiperidin-3-yl)-2-fluorophenyl)piperidin-4-yl)methyl)-7-azaspiro[3.5]nonan-2-yl)-4-methoxypicolinamide], for which, on PLK1, the “Activity: ratio” value is “++ (++ <0.6)”. The IC50 with H526 cell line is under 0.05 µM. Also, in data set [1], the concentration for half-maximal inhibition (IC50) at 5 days was over 10 µM.
`COc1cc(C(=O)NN2CC3(CCN(CC4CCN(c5ccc(C6CCC(=O)NC6=O)cc5F)CC4)CC3)C2)ccc1Nc1ncc2c(n1)N(C(C)C)CC(F)(F)C(=O)N2C` (stereo not drawn) [Compound 23, 4-((7,7-difluoro-9-isopropyl-5-methyl-6-oxo-6,7,8,9-tetrahydro-5H-pyrimido[4,5-b][1,4]diazepin-2-yl)amino)-N-(7-((1-(4-(2,6-dioxopiperidin-3-yl)-2-fluorophenyl)piperidin-4-yl)methyl)-2,7-diazaspiro[3.5]nonan-2-yl)-3-methoxybenzamide]: the “Activity: ratio” value on PLK1 is listed as “+++ (+++: <0.3)”. In addition, in the data set with H526 cell line, the IC50 is under 0.03 µM. This compound displayed an IC50 at 5 days in data set [1] (MRC-5 cells (normal cell line)) of over 10 µM.
Regarding `COc1cc(C(=O)OC2CC3(CCN(CC4CCN(c5ccc(C6CCC(=O)NC6=O)cc5F)CC4)CC3)C2)ccc1Nc1ncc2c(n1)N(C(C)C)CC(F)(F)C(=O)N2C` (stereo not drawn) [Compound 25, 7-((1-(4-(2,6-dioxopiperidin-3-yl)-2-fluorophenyl)piperidin-4-yl)methyl)-7-azaspiro[3.5]nonan-2-yl 4-((7,7-difluoro-9-isopropyl-5-methyl-6-oxo-6,7,8,9-tetrahydro-5H-pyrimido[4,5-b][1,4]diazepin-2-yl)amino)-3-methoxybenzoate], the “Activity: ratio” value at PLK1 is listed as “++ (++ <0.6)”. This compound yielded an IC50 in the data set on H526 cell line of under 0.2 µM. Moreover, the IC50 at 5 days in data set [1] is over 10 µM.
The like results for `COc1cc(C(=O)NN2CC3(CCC(CN4CCN(c5ccc(C6CCC(=O)NC6=O)cc5F)CC4)CC3)C2)ccc1Nc1ncc2c(n1)N(C(C)C)CC(F)(F)C(=O)N2C` (stereo not drawn) [Compound 31, 4-((7,7-difluoro-9-isopropyl-5-methyl-6-oxo-6,7,8,9-tetrahydro-5H-pyrimido[4,5-b][1,4]diazepin-2-yl)amino)-N-(7-((4-(4-(2,6-dioxopiperidin-3-yl)-2-fluorophenyl)piperazin-1-yl)methyl)-2-azaspiro[3.5]nonan-2-yl)-3-methoxybenzamide] were, in that order, “+++ (+++: <0.3)”, under 0.03 µM and over 10 µM.
On the same counts, the results for `COc1cc(C(=O)NC2CC3(CCN(CC4CCN(c5ccc(C6CCC(=O)NC6=O)cc5F)C(C)C4)CC3)C2)ccc1Nc1ncc2c(n1)N(C(C)C)CC(F)(F)C(=O)N2C` (stereo not drawn) [Compound 32, 4-((7,7-difluoro-9-isopropyl-5-methyl-6-oxo-6,7,8,9-tetrahydro-5H-pyrimido[4,5-b][1,4]diazepin-2-yl)amino)-N-(7-((1-(4-(2,6-dioxopiperidin-3-yl)-2-fluorophenyl)-2-methylpiperidin-4-yl)methyl)-7-azaspiro[3.5]nonan-2-yl)-3-methoxybenzamide] are “+++ (+++: <0.3)”, under 0.03 µM and over 10 µM.
On the same counts, the results for `COc1cc(C(=O)NC2CC3(CCN(CC4(O)CCN(c5ccc(C6CCC(=O)NC6=O)cc5F)CC4)CC3)C2)ccc1Nc1ncc2c(n1)N(C(C)C)CC(F)(F)C(=O)N2C` (stereo not drawn) [Compound 33, 4-((7,7-difluoro-9-isopropyl-5-methyl-6-oxo-6,7,8,9-tetrahydro-5H-pyrimido[4,5-b][1,4]diazepin-2-yl)amino)-N-(7-((1-(4-(2,6-dioxopiperidin-3-yl)-2-fluorophenyl)-4-hydroxypiperidin-4-yl)methyl)-7-azaspiro[3.5]nonan-2-yl)-3-methoxybenzamide] are “++ (++ <0.6)”, under 0.03 µM and over 10 µM.
In the case of `COc1cc(C(=O)NC2CC3(CCN(CC4CCN(c5ccc(C6CCC(=O)NC6=O)cc5C)CC4)CC3)C2)ccc1Nc1ncc2c(n1)N(C(C)C)CC(F)(F)C(=O)N2C` (stereo not drawn) [Compound 35, 4-((7,7-difluoro-9-isopropyl-5-methyl-6-oxo-6,7,8,9-tetrahydro-5H-pyrimido[4,5-b][1,4]diazepin-2-yl)amino)-N-(7-((1-(4-(2,6-dioxopiperidin-3-yl)-2-methylphenyl)piperidin-4-yl)methyl)-7-azaspiro[3.5]nonan-2-yl)-3-methoxybenzamide], the “Activity: ratio” value at PLK1 is reported as “++ (++ <0.6)”. Further, in the data set with H526 cell line, the IC50 is under 0.03 µM. In data set [1], this compound returned an IC50 at 5 days of over 10 µM.
The like results for `COc1cc(C(=O)NC2CC3(CCN(CC4CCN(c5ccc(C6CCC(=O)NC6=O)cc5OC)CC4)CC3)C2)ccc1Nc1ncc2c(n1)N(C(C)C)CC(F)(F)C(=O)N2C` (stereo not drawn) [Compound 36, 4-((7,7-difluoro-9-isopropyl-5-methyl-6-oxo-6,7,8,9-tetrahydro-5H-pyrimido[4,5-b][1,4]diazepin-2-yl)amino)-N-(7-((1-(4-(2,6-dioxopiperidin-3-yl)-2-methoxyphenyl)piperidin-4-yl)methyl)-7-azaspiro[3.5]nonan-2-yl)-3-methoxybenzamide] were, in that order, “++ (++ <0.6)”, under 0.03 µM and over 10 µM.
For the compound `COc1cc(C(=O)NN2CCN(C3CCN(c4ccc(C5CCC(=O)NC5=O)cc4F)C3)CC2)ccc1Nc1ncc2c(n1)N(C(C)C)CC(F)(F)C(=O)N2C` (stereo not drawn) [Compound 38, 4-((7,7-difluoro-9-isopropyl-5-methyl-6-oxo-6,7,8,9-tetrahydro-5H-pyrimido[4,5-b][1,4]diazepin-2-yl)amino)-N-(4-(1-(4-(2,6-dioxopiperidin-3-yl)-2-fluorophenyl)pyrrolidin-3-yl)piperazin-1-yl)-3-methoxybenzamide], at PLK1, the “Activity: ratio” value is reported as “+++ (+++: <0.3)”. In addition, the IC50 with H526 cell line is under 0.05 µM. Also, the IC50 at 5 days in data set [1] (MRC-5 cells (normal cell line)) was over 10 µM.
As to `COc1cc(C(=O)NN2CCC(CN3CCC4(CC3)CN(c3ccc(C5CCC(=O)NC5=O)cc3F)C4)CC2)ccc1Nc1ncc2c(n1)N(C(C)C)CC(F)(F)C(=O)N2C` (stereo not drawn) [Compound 42, 4-((7,7-difluoro-9-isopropyl-5-methyl-6-oxo-6,7,8,9-tetrahydro-5H-pyrimido[4,5-b][1,4]diazepin-2-yl)amino)-N-(4-((2-(4-(2,6-dioxopiperidin-3-yl)-2-fluorophenyl)-2,7-diazaspiro[3.5]nonan-7-yl)methyl)piperidin-1-yl)-3-methoxybenzamide], on PLK1, the “Activity: ratio” value was “++ (++ <0.6)”. This compound also came in with an IC50 in the data set with H526 cell line of under 0.03 µM. The half-inhibitory concentration (IC50) at 5 days in data set [1] (MRC-5 cells (normal cell line)) was over 10 µM.

As a reminder, the IC50 is the midpoint of a concentration-inhibition curve.
